Measurements taken from patent US6448270B1, “4-substituted piperidine analogs and their use as subtype selective NMDA receptor antagonists” (Warner-Lambert Company, priority 1995, dated 2002).
Where two headings read alike, the source gives them in different places.

Key:
[1] = test system: maximal electroshock-induced seizures; assay: Maximal electroshock-induced seizures (MES); type: in vivo, mice; details: for ED50: Mus musculus, mice, tonic hindlimb extensor response, corneal electrodes 50 mA; for activity against maximal electroshock (MES): statement in words, refers to Table 3
Description: Maximal Electroshock-induced Seizures
Seizures were induced by application of current (50 mA, 60 pulses/sec, 0.8 sec pulse width, 1 sec duration, d.c.) through saline-coated corneal electrodes using a Ugo Basile ECT device (Model 7801). […] A tonic seizure was defined as a hindlimb extension in excess of 90 degrees from the plane of the body. Results were treated in a quantal manner.

[2] = biological target: NR1A/NR2A NMDA receptor (Rattus norvegicus, UniProt P35439+Q00959); assay: Electrophysiological assay, cloned NMDA receptor subunits expressed in Xenopus oocytes (1A/2A); type: cell-based
Excerpt: (§1) Electrophysiological Assays at NMDA Receptor Subunits
(§2) cDNA clones encoding the NR1A, NR2A, NR2B, NR2C and NR2D rat NMDA receptor subtypes were provided by Dr. P. H. Seeburg (see, Moriyoshi et al., Nature (Lond.) 354:31-37 (1991); Kutsuwada et al., Nature (Lond.) 358:36-41 (1992) Monyer et al., Science (Washington, D.C.) 256:1217-1221 (1992); Ikeda et al., FEBS Lett. 313:34-38 (1992); Ishii et al., J. Biol. Chem. 268:2836-2843 (1993) for details of these clones or their mouse homologs). The clones were transformed into appropriate host bacteria and plasmid preparations were made with conventional DNA purification techniques. […]
(§3) Electrical recordings were made using a conventional two-electrode voltage clamp (Dagan TEV-200) over periods ranging between 3-21 days following injection. […] Inhibitory potency of the novel antagonists was assessed on responses elicited by fixed concentrations of glutamate and glycine, by measuring reductions in current induced by progressively increasing concentrations of antagonist. […]
(§4) in which Icontrol is the current evoked by agonists alone, pIC50=−log IC50, IC50 is the concentration of antagonist that produces half maximal inhibition, and n is the slope factor. […] For incomplete curves analysis by fitting was unreliable and IC50 values were calculated by simple regression over linear portions of the curves (Origin: Microcal Software).

[3] = biological target: NR1A/NR2B NMDA receptor (Rattus norvegicus, UniProt P35439+Q00960); assay: Electrophysiological assay, cloned NMDA receptor subunits expressed in Xenopus oocytes (1A/2B); type: cell-based
Excerpt: as §1
cDNA clones encoding the NR1A, NR2A, NR2B, NR2C and NR2D rat NMDA receptor subtypes were provided by Dr. P. H. Seeburg (see, Moriyoshi et al., Nature (Lond.) 354:31-37 (1991); Kutsuwada et al., Nature (Lond.) 358:36-41 (1992) Monyer et al., Science (Washington, D.C.) 256:1217-1221 (1992); Ikeda et al., FEBS Lett. 313:34-38 (1992); Ishii et al., J. Biol. Chem. 268:2836-2843 (1993) for details of these clones or their mouse homologs). The clones were transformed into appropriate host bacteria and plasmid preparations were made with conventional DNA purification techniques. A sample of each clone was linearized by restriction enzyme digestion and cRNA was synthesized with T3 RNA polymerase. The CRNA was diluted to 400 ng/μl and stored in 1 μl aliquots at −80° C. until injection.
Mature female Xenopus laevis were anaesthetized (20-40 min) using 0.15% 3-aminobenzoic acid ethyl ester (MS-222) and 2-4 ovarian lobes were surgically removed. Oocytes at developmental stages IV-VI (Dumont, J. N., J. Morphol. 136:153-180 (1972)), were dissected from the ovary still surrounded by enveloping ovarian tissues. Follicle-enclosed oocytes were micro-injected with 1:1 mixtures of cRNA:NR1A+NR2A, 2B, 2C or 2D; injecting ˜2,5, or 20 ng of RNA encoding each receptor subunit. […]
as §3, §4

[4] = biological target: NR1A/NR2C NMDA receptor (Rattus norvegicus, UniProt P35439+Q00961); assay: Electrophysiological assay, cloned NMDA receptor subunits expressed in Xenopus oocytes (1A/2C); type: cell-based; details: read-out: Subunits (IC50 (μM)) 1A/2C, mean IC50, inhibition of NMDA-activated membrane current responses, glutamate 100 μM + glycine
Excerpt: as §1, §2, §3, §4

[5] = biological target: NR1A/NR2D NMDA receptor (Rattus norvegicus, UniProt P35439+Q62645); assay: Electrophysiological assay, cloned NMDA receptor subunits expressed in Xenopus oocytes (1A/2D); type: cell-based; details: read-out: Subunits (IC50 (μM)) 1A/2D, mean IC50, inhibition of NMDA-activated membrane current responses, glutamate 100 μM + glycine
Excerpt: as §1, §2, §3, §4

[6] = mean IC50, inhibition of NMDA-activated membrane current responses, glutamate 100 μM + glycine, read-out: Subunits (IC50 (μM)) 1A/2B

Chain of NR1A/NR2B NMDA receptor (Q00960 27-1482, other chains not shown): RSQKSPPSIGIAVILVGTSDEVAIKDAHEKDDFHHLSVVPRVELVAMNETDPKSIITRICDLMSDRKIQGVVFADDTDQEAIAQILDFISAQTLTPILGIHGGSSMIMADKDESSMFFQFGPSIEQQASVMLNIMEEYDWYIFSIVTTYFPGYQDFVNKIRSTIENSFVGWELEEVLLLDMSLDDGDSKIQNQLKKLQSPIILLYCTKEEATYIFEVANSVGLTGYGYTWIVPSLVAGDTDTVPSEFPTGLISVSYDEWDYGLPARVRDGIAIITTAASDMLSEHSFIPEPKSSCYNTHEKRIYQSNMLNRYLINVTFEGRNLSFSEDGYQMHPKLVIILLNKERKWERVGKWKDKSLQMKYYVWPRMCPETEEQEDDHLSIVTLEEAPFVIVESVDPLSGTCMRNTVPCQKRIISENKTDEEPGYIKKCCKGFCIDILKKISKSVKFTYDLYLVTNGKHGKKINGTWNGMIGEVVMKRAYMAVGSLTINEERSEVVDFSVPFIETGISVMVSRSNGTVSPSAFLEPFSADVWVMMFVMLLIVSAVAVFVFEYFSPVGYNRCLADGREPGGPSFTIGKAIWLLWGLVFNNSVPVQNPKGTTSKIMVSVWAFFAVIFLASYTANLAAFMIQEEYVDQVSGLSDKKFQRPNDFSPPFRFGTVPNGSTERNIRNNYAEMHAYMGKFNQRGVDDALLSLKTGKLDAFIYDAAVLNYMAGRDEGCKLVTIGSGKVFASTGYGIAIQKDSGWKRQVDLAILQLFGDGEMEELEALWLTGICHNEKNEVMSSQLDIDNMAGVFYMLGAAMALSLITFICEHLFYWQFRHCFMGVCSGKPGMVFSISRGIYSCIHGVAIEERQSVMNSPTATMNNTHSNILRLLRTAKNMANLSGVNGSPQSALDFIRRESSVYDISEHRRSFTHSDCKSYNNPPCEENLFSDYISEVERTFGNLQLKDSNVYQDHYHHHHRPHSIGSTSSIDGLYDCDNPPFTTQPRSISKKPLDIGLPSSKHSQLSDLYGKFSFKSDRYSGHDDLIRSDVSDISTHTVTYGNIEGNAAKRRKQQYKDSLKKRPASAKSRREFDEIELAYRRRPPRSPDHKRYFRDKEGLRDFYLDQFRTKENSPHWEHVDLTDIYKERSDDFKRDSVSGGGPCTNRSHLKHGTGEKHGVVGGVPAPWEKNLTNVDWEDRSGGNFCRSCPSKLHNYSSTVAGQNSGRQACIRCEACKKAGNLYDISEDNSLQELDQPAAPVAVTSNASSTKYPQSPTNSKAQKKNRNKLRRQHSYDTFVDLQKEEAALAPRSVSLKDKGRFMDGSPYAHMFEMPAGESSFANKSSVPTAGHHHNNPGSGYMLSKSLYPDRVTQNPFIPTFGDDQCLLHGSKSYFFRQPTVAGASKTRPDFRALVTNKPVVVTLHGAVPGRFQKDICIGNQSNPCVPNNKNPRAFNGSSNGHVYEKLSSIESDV
Chain of NR1A/NR2A NMDA receptor (Q00959 20-1464 limits assumed, other chains not shown): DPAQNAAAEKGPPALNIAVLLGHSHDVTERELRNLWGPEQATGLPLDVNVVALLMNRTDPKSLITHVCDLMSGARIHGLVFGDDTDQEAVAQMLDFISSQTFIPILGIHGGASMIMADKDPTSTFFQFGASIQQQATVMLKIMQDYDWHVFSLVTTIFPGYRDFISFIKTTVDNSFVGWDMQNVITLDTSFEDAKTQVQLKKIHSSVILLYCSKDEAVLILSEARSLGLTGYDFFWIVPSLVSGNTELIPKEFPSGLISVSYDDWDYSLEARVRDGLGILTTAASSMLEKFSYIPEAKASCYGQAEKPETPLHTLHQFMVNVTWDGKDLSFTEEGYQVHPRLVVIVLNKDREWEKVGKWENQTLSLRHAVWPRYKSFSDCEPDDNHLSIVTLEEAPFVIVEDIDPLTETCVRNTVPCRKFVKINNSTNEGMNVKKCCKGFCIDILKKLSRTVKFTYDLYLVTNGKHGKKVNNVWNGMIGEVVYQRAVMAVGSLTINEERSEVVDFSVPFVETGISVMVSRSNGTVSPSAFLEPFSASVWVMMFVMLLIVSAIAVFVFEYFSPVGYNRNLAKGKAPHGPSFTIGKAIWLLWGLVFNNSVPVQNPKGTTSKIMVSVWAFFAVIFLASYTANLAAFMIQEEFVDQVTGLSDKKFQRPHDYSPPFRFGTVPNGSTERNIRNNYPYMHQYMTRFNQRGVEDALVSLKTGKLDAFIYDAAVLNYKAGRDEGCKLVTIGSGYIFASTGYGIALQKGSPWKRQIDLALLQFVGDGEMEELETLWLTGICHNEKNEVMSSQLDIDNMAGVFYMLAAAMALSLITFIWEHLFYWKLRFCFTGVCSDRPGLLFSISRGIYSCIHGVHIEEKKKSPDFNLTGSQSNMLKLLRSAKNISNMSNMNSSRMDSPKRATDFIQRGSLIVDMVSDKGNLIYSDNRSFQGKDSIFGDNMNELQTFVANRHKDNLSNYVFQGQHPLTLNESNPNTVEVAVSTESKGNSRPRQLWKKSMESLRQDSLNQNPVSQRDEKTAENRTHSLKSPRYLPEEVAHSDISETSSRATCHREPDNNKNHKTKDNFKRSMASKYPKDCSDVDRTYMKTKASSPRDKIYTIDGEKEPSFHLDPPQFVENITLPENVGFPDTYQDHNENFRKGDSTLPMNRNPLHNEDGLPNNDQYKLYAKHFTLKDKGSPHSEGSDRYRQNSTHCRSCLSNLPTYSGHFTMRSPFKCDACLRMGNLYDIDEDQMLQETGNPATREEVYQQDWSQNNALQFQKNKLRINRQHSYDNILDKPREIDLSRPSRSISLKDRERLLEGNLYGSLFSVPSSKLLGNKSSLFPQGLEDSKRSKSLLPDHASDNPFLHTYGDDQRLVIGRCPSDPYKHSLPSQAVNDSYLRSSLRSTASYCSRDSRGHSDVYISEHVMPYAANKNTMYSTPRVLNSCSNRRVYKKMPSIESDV
Chain of NR1A/NR2D NMDA receptor (Q62645 28-1323, other chains not shown): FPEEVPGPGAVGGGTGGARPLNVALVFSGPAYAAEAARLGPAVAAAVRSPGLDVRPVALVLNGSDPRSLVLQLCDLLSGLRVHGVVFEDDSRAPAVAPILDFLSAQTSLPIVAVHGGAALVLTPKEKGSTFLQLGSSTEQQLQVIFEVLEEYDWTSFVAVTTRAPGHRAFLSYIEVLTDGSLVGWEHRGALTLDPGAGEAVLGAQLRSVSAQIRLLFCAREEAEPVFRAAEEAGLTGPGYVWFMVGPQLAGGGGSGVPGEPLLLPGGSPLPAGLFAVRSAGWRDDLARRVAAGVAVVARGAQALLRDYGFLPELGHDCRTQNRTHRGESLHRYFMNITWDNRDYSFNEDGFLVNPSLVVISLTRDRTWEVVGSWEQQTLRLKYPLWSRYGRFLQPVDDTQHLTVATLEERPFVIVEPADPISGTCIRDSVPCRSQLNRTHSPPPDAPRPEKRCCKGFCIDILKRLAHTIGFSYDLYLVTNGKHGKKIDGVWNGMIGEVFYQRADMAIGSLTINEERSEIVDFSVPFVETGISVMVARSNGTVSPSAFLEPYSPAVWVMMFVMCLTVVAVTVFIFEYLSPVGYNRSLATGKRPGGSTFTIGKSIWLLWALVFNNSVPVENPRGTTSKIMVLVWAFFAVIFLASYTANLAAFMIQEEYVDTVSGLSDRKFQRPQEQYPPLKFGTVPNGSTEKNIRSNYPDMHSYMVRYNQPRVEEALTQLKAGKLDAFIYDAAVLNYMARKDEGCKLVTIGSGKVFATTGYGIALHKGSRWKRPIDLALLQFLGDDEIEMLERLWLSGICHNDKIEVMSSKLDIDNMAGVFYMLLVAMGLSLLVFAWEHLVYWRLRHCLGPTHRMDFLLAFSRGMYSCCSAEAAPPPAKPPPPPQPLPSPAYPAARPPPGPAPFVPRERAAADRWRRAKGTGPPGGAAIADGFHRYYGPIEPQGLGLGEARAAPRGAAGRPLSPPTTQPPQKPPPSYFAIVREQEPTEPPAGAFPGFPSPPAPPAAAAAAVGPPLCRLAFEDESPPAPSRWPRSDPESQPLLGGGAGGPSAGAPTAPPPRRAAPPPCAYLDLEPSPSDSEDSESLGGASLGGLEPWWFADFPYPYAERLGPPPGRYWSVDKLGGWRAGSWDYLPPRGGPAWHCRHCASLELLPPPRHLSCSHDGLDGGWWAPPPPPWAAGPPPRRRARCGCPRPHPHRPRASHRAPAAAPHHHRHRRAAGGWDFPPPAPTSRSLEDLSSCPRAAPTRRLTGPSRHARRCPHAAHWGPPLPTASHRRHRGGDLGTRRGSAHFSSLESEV

Row | Compound | ED50 [1] [mg/kg] | activity against maximal electroshock (MES) [1] | also measured
1 | Nc1cccc(C#CCCN2CCC(O)(c3ccc(Cl)cc3)CC2)c1 [Ex. 8, 1-[4-(3-Aminophenyl)-3-butynyl]-4-hydroxy-4-(4-chlorophenyl)piperidine] | 10 | potent activity | –
2 | Nc1cccc(C#CCCN2CC=C(c3ccccc3)CC2)c1 [Ex. 14, 1-[4-(5-Aminophenyl)-3-butynyl]-4-phenyl-1,2,5,6-tetrahydropyridine] | – | – | IC50 ([2]; read-out: Subunits (IC50 (μM)) 1A/2A, mean IC50, inhibition of NMDA-activated membrane current responses, glutamate 100 μM + glycine): 40 µM; IC50 ([3]; read-out: Subunits (IC50 (μM)) 1A/2B, mean IC50, inhibition of NMDA-activated membrane current responses, glutamate 100 μM + glycine): 30 µM; IC50 [4]: > 100 µM; IC50 [5]: > 100 µM
3 | C(#Cc1ccccc1)CCN1CCC(Cc2ccccc2)CC1 [Ex. 18, 4-Benzyl-1-(4-phenyl-3-butynyl)piperidine] | 3.5 | potent activity | –
4 | CCCCNC(=N)Nc1cccc(C#CCCN2CCC(O)(c3ccc(Cl)cc3)CC2)c1 [Ex. 28, N-n-Butyl-N′-(3-(4-(4-(4-chlorophenyl)-4-hydroxy)piperidinyl)butynyl)phenylguanidine] | 10 | potent activity | melting point: 98 to 100 °C
5 | Nc1ccc(C#CCCN2CCC(Cc3ccccc3)CC2)cc1 [Ex. 30, 1-(4-(4-Aminophenyl)-3-butynyl)-4-benzylpiperidine] | 1.8 | potent activity | –
6 | Cc1ccc(CC2CCN(CCC#Cc3ccc(N)cc3)CC2)cc1 [Ex. 39, 4-{4-[4-(4-Methyl-benzyl)-piperidin-1-yl]-but-1-ynyl}-phenylamine] | 2.5 | potent activity | –
7 | O=[N+]([O-])c1ccc(C#CCCN2CCC(Cc3ccccc3)CC2)cc1 [Ex. 40, 4-Benzyl-1-[4-(4-nitro-phenyl)-but-3-ynyl]-piperidine] | – | – | IC50 [3, 6]: 5 µM
8 | Oc1ccc(C#CCCN2CCC(Cc3ccccc3)CC2)cc1 [Ex. 42, 4-[4-(4-Benzyl-piperidin-1-yl)-but-1-ynyl]-phenol] | 2.5 | potent activity | –
9 | NCc1cccc(C#CCCN2CCC(Cc3ccccc3)CC2)c1 [Ex. 52, 3-[4-(4-Benzyl-piperidin-1-yl)-but-1-ynyl]-benzylamine] | – | – | IC50 ([2]; mean IC50, inhibition of NMDA-activated membrane current responses, glutamate 100 μM + glycine, read-out: Subunits (IC50 (μM)) 1A/2A): 15 µM
10 | CC(=O)Nc1ccc(C#CCCN2CCC(Cc3ccccc3)CC2)cc1 [Ex. 53, N-{4-[4-(4-Benzyl-piperidin-1-yl)-but-1-ynyl]-phenyl}-acetamide] | 8 | potent activity | –
11 | CNc1ccc(C#CCCN2CCC(Cc3ccccc3)CC2)cc1 [Ex. 54, {4-[4-(4-Benzyl-piperidin-1-yl)-but-1-ynyl]-phenyl}-methyl-amine] | 6.5 | potent activity | –
12 | NS(=O)(=O)c1ccc(C#CCCN2CCC(Cc3ccccc3)CC2)cc1 [Ex. 59, 4-[4-(4-Benzyl-piperidin-1-yl)-but-1-ynyl]-benzenesulfonamide] | > 5 | – | –
13 | Nc1ccc(C#CCN2CCC(Cc3ccccc3)CC2)cc1 [Ex. 63, 4-[3-(4-Benzyl-piperidin-1-yl)-prop-1-ynyl]-phenylamine] | – | – | IC50 [3, 6]: 12 µM
14 | Cc1ccc(CC2CCN(CCC#Cc3ccc(O)cc3)CC2)cc1 [Ex. 67, 4-{4-[4-(4-Methyl-benzyl)-piperidin-1-yl]-but-1-ynyl}-phenol] | 6 | potent activity | –
15 | Cc1ccc(CC2(O)CCN(CCC#Cc3ccc(N)cc3)CC2)cc1 [Ex. 77, 1-(1-(4-Aminophenyl)-1-butyn-4-yl)-4-hydroxy-4-(4-methylbenzyl)piperidine] | 0.4 | – | –
